Source: patent publication US20250171404A1, “PCNA INHIBITORS AND USES THEREOF” (CITY OF HOPE, priority 2022, published 2025)

Key:
[1] = molecular target: T1, PCNA (Homo sapiens, UniProt P12004); assay: Thermal denaturation (thermal shift) assay; type: binding; conditions: 9 μM PCNA; 10 or 30 μM compound; dose dependent
T1 construct: made in house; host or cells: E. coli Rosetta 2 (DE3)
Protocol: FIGS. 1A-1E. AOH1160 analog interactions with PCNA. FIG. 1A: Thermal shift assay: Normalized inverse derivative thermal denaturation plots of 9 μM apo-PCNA with DMSO control is depicted with a black dashed line and PCNA in the presence of 10 μM AOH1160LE is shown in light grey and 30 μM AOH1160LE in dark grey. ΔTm values are provided. FIG. 1B: As described in FIG. 1A, in the presence of 10 μM AOH1996 depicted in light grey and 30 μM AOH1996 depicted in dark grey. FIG. 1C: Four monomers (chains A-D) of PCNA are present in the asymmetric unit of the crystal. Chains A, B, and C form the homotrimer biological unit, while chain Dis orientated perpendicular to the plane of the ring, below the interface of chains B and C and it belongs to an adjacent ring. Inset: Three molecules of AOH1160LE bind in and adjacent to the PIP box cavity of each of the PCNA ring subunits. The omit map, gray mesh, is contoured to 1.56. Two PCNA monomer subunits from adjacent rings stack against each other, placing the PIP box and IDCLs of each subunit in opposing directions. FIG. 1D: The three AOH1160LE molecules are shown as stick figure representations. Two of the compounds, left and central, bind into the PIP box cavity at known PCNA-partner/compound interaction sites. […] The electrostatic surface maps are depicted with Poisson-Boltzmann electrostatic surface potentials shown in dark grey and light grey, corresponding to −10 to +10 kT/e respectively.
Targeting the PIP box and APIM binding domain of PCNA. AOH1160, a small molecule PCNA ligand, targets the cancer-distinct L126-Y133 region of PCNA (Malkas et al., 2006) and is selectively toxic to cancer cells (Gu et al., 2018). […]
Thermal denaturation assay for PCNA-AOH1996 interaction. […] Fluorescence intensity was measured within the excitation/emission ranges 470-505/540-700 nm.

[2] = test system: 7SM0032; assay: Cell cycle analysis (PI, flow cytometry), nonmalignant cells; type: cell-based, human; conditions: 500 nM; nonmalignant 7SM0032 cells
Protocol: FIGS. 3A-3D. Therapeutic properties of AOH1996. FIG. 3A: Normal cells (7SM0032) or cancer cells (SH-SY5Y and SK-N-BE(2)c) cells were fixed, stained with PI, and analyzed by flow cytometry following treatment with 500 nM AOH1996 for the indicated time. FIG. 3B: SK-N-DZ neuroblastoma cells and nonmalignant 7SM0032 stem cells were incubated with 500 nM AOH1996 for 24 h. Then, after being fixed on slides, cell apoptosis were analyzed by a TUNEL assay. Left: TMR fluorophore attached to the free ends of DNA indicates cells undergoing apoptosis. DAPI stained nuclei also shown. Right: Average abundance ±S.D. of apoptotic 7SM0032 (black histogram) and SK-N-DZ (grey histogram) cells relative to the total number of cells are shown in 5 randomly selected fields. FIG. 3C: Human SK-N-DZ neuroblastoma cells were treated with or without the indicated concentrations of cisplatin in the absence or presence of 500 nM of AOH1996 for 18 hours. […] The relative number of colonies determined in triplicates for each treatment condition were averaged and graphed ±SDs (*, P<0.01). […] Cell growth was measured as the percentage of cell confluence by imaging every 6 h for a total of 48 h.
Cell Cycle Analysis. […] PI fluorescence intensity of the cells was measured by flow cytometry and the data was analyzed using the FlowJo program.

[3] = test system: SK-N-AS cells homozygous of the Y418A mutant RPB1 alleles; assay: Growth of RPB1 Y418A (APIM) mutant cell lines; type: cell-based, human; conditions: 72 hrs; vs parent SK-N-AS

T1 sequence (P12004 whole entry): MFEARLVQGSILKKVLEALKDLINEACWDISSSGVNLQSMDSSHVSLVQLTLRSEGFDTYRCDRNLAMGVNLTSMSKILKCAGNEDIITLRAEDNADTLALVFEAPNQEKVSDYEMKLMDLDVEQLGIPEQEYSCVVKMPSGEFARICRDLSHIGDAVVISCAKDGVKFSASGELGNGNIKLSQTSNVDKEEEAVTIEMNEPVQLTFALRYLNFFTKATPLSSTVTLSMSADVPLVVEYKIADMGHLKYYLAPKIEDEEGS

COc1cccc(Oc2ccccc2NC(=O)CNC(=O)c2cccc3ccccc23)c1 [AOH1996, N-(2-((2-(3-methoxyphenoxy)phenyl)amino)-2-oxoethyl)-1-naphthamide]
shift of protein melting curves (ΔTm) [1]: ≤ 1.5 °C | change in cell-cycle profile [2]: does not significantly change the cell-cycle profiles | sensitivity of RPB1 Y418A mutant cells to growth inhibition [3]: significantly less sensitive to growth inhibition by AOH1996 than the parent cells
